Measured values: patent publication US20020142347A1, “Biosensor” (BIOSENSOR ApS, priority 2000, published 2002)
Positions count from the first letter of the chain named.

Columns and labels:
[1] = target: T1, FACI-24 (Bos taurus, UniProt P07107, M25C); experiment: Fluorescence titration equilibrium binding analysis of CoA and acyl-CoA esters to FACI-24; design: species or system bovine; settings: FACI-24 (1.5 μM) titrated with increasing CoA and acyl-CoA concentration; fitted binding curves, emission 460 nm; read-out: Kd (nM) ± S.E.
T1 construct: made in house; host or cells: E. coli BL21(DE3)pLysS, pET3a vector
T1 sequence (P07107 2-87 M25C): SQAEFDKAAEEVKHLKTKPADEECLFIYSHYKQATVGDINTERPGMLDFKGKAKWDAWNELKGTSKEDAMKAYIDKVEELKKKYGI
Protocol: Development of a mathematical expression describing the relationship between acyl-CoA concentration and FACI-24 fluorescence was performed essentially as by Richieri et al 1992, J Biol Chem, 267:23495-23501. However, where ligand binding to ADIFAB induces both a fluorescence intensity increase around 505 nm and a fluorescence intensity decrease around 432 nm, ligand binding to FACI-24 only causes an increase in fluorescence around 460 nm.
Derivatisation of an expression for the fluorescence value as a function of the acyl-coA concentration was done using the Scatchard equation as a starting point: [formula]
which has been used to fit the titration data.
The curves represent the best fit analysis from two independent experiment calculated and normalized as described above. The FACI-24 binding affinity increases dramatically when the acyl-chain length increases from C8 to C10 and C12, a smaller but significant drop in Kd is seen by increasing chain length from C12 to C14. C14 to C18 saturated acyl-CoA esters and C18:1-CoA binds with similar and very high affinities to FACI-24. In >0.1 M salt, FACI-24 binds acyl-CoAs with higher affinity and similar specificity as native unmodified bovine ACBP. The Kd for binding of C12-CoA and C16-CoA to native ACBP is 40 and 2.0 nM, respectively (Fulcery et al Biochemical, 1997, 325:423-428; Færgeman et al 1996, Biochemistry, 35:14118-14126). FACI-24 is highly specific for binding long-chain acyl-CoA esters.
(§1) Titration of FACI with acyl-CoAs was done using a SPEX FLOUROLOG (Industries Inc, Edison N.J., USA) with excitation at 387 nm and emission at 460 nm, with both excitation and emission slits set to 4.5 nm. FACI (0.5-4.5 uM, as indicated) was dissolved in 1.5 ml binding buffer (10 mM HEPES 150 mM NaCl, 5 mM KCl, 1 mM Na2HPO4, pH 7.4) and titrated with a 10 μM acyl-CoA dissolved in binding buffer, with or without FACI added, as indicated. Fluorescence emission values (counts per second) measured without FACI added to the ligand stock solution were corrected for titrand dilution.
Up to four parameters were fitted in this way, these were B, representing the point of saturation on the X axis, H, representing the maximum fluorescence, i.e. the fluorescence at saturating concentration of acyl-CoA, L, the minimum fluorescence value, i.e. the fluorescence of FACI-24 alone in buffer, and K, the Kd value lor the acyl-CoA in question. Initial estimates for the fittable parameters were typically: B=1, H=maximum fluorescence value measured, L=minimum fluorescence value measured (at acyl-CoA-concentration=0), and K as judged from the raw data, typically from 0.0001 uM to 0.1 uM for acyl-CoA longer than C10:0-CoA.
For each acyl-CoA at least two titrations and fittings were performed. To consider two or more titrations of the same acyl-CoA together and obtain a Kd value using all these titrations, both axes of the raw data were standardised using the fitted values of B, H and L in this way:
X axis standard=(raw X axis values)/Bfitted
Y axis standard=[(raw Y axis values)−Lfitted]/[Hfitted−Lfitted]
In this way all Y axis values should come to lie between 0 and 1 and the X axis value should be 1 at the point of saturation (FACI-24:acyl-CoA 1:1). Such adjusted data were pooled and fitted using DataFit. Typically, both H and B fitted to values close to 1 and L fitted to values close to 0. K was typically fitted to values somewhere between the two values obtained for the raw data.
This could be overcome by removing B from the fittable parameters list and instead setting it to a constant value of 1 and fitting again. This was typically done for both the raw and the standardised data.

[2] = target: T2, M24C-badan ACBP (Bos taurus, UniProt P07107, M25C); experiment: Isothermal titration micro calorimetry of acyl-CoA binding to M24C-badan ACBP; design: species or system bovine; settings: isotermal titration micro calorimetry
T2 construct: made in house; host or cells: E. coli BL21(DE3)pLysS, pET3a vector
T2 sequence (P07107 2-87 M25C): T1 sequence (P07107 2-87 M25C)
Protocol: Quantitative determination of binding affinities (KD) were performed by isothermal titration micro calorimetry as previously described (Faergeman et. al., 1996; Biochemistry 35, 14118-14126). Qualitative evaluation of relative binding affinities were determined by isoelectrical focusing using the Pharmacia Fast Gel system according to the prescriptions given by the manufacture. Fluorescence emission changes induced by acyl-CoA binding to badan modified protein were determined as follows: 5 μl portions of acyl-CoAs were added from stock solutions disolved in binding buffer, (10 mM Hepes, 150 mM NaCL, 1 mM NaHPO4, pH 7.4) containing 3.4 μM Badan derivatized protein to a 1 ml 3.4 μM solution of the Badan derivatized ACBP in the same buffer. The fluorescence emission was measured on a SPEX FLOUROLOG (Industries Inc, Edison N.J., USA) with excitation at 400 nm and emission scan from 400 nm to 550 nm. The concentration of acyl-CoA in the aqueous phase was determined from the fluorescence emission sensitivities at 495 and 470 nm repectively essentially by the method described by (Grynkiewickz et. al.,1985, J. Biol. Chem. 260, 3440-3450) according to which: […]

[3] = target: T1, FACI-24; experiment: Fluorescence emission change of FACI-24 on titration with CoA and acyl-CoA esters; type: binding, bovine; settings: emission maximum without ligand 510 nm; excitation 400 nm
Protocol: (§2) Quantitative determination of binding affinities (KD) were performed by isothermal titration micro calorimetry as previously described (Faergeman et. al., 1996; Biochemistry 35, 14118-14126). Qualitative evaluation of relative binding affinities were determined by isoelectrical focusing using the Pharmacia Fast Gel system according to the prescriptions given by the manufacture. Fluorescence emission changes induced by acyl-CoA binding to badan modified protein were determined as follows: 5 μl portions of acyl-CoAs were added from stock solutions disolved in binding buffer, (10 mM Hepes, 150 mM NaCL, 1 mM NaHPO4, pH 7.4) containing 3.4 μM Badan derivatized protein to a 1 ml 3.4 μM solution of the Badan derivatized ACBP in the same buffer. The fluorescence emission was measured on a SPEX FLOUROLOG (Industries Inc, Edison N.J., USA) with excitation at 400 nm and emission scan from 400 nm to 550 nm. The concentration of acyl-CoA in the aqueous phase was determined from the fluorescence emission sensitivities at 495 and 470 nm repectively essentially by the method described by (Grynkiewickz et. al.,1985, J. Biol. Chem. 260, 3440-3450) according to which:
(§3) Fluorescence titration emission spectra from 415 nm to 550 nm (excitation at 400 nm) were performed for CoA, C4:0-, C8:0-, C12:0-, C16:0-, and C20:0-CoA with all four mutated and badan modified proteins.
The emission maximum of FACI-24 without ligand added was 510 nm and titration with CoA, C4:0-, C8:0-, C12:0-, […], C16:0- and C20:0-CoA caused 0, 16, 34, 42, 46 and 46 nm downshift in emission maximum, respectively (results not shown). C16:0-CoA induced a 5,5 fold increase in emission at 464 nm (FIG. 10).
as §1

[4] = target: T3, FACI53 (Bos taurus, UniProt P07107, A54C); experiment: Fluorescence emission change of FACI-53 on titration with CoA and acyl-CoA esters; type: binding, bovine
T3 construct: badan (6-bromoacetyl-2-dimethylaminonaphthalene) fluorophore on the introduced Cys-53; made in house; host or cells: E. coli BL21(DE3)pLysS, pET3a vector
T3 sequence (P07107 2-87 A54C): T1 sequence (P07107 2-87 M25C) with C24M, A53C
Protocol: as §2, §3
Titration of FACI-53 dissolved in binding buffer with the above mentioned acyl-CoA esters produced a smooth downward shift in fluorescence emission maximum from 525 nm when no ligand was present to 508, 503, 490, 492, 496 and 514 with increasing concentrations of CoA, C4:0-, C8:0-, C12:0-, C16:0- and C20:0-CoA respectively.

[5] = target: T4, native bovine ACBP (Bos taurus, UniProt P07107); settings: isothermal titration microcalorimetry, >0.1 M salt; literature; read-out: KD for binding to native bovine ACBP; cited from earlier work
T4 sequence (P07107 1-87): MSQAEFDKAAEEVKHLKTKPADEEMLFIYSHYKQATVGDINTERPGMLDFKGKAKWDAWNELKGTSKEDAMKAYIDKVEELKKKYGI

With `CCCCCCCCCCCC(=O)SCCNC(=O)CCNC(=O)[C@H](O)C(C)(C)COP(=O)(O)OP(=O)(O)OC[C@H]1O[C@@H](n2cnc3c(N)ncnc32)[C@H](O)[C@@H]1OP(=O)(O)O` [C12:0-CoA, dodecanoyl-CoA] the Kd [1] was 10.2 ± 0.81 nM, the Kd [2] was 40 nM and the “Downshift in emission maximum of FACI-24” value [3] was 42 nm. The “Magnitude of emission of FACI-53, fold increase” value [4] was 2.7 fold, the “Fluorescence emission maximum of FACI-53 with ligand” value ([4]; 525 nm when no ligand present, excitation 400 nm) was 492 nm and the “Relative emission of FACI-53 at 495 nm, fold increase” value ([4]; emission at 495 nm) was 4.7 fold. For the same compound, the Kd [5] was 40 nM.
